The test system of this assay is HT-29 cells. Briefly: HT-29 necroptosis cell viability assay (TNF-α/SMAC mimetic/zVAD-FMK, CellTiter-Glo). The following applies: Homo sapiens. Format: cell-based. Put shortly: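 HT-29 cells (~5,000/well, overnight) in FBS-free McCoy's 5A with TNF-α 10 ng/ml, SMAC mimetic 6 μM and zVAD-FMK 10 μM plus 10-point 1:3 compound titration, 20 h at 37°C. ATP measured by CellTiter-Glo luminescence; IC50 as geometric mean of duplicates.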
In general terms: Cellular ATP, detected with luciferase, serves as a proxy for viable cell number.

Where [1] appears, read: HT-29, HT-29 necroptosis cell viability, IC50 class symbols, read-out: Activity.
Where [2] appears, read: HT-29, HT-29 necroptosis cell viability assay, class symbols for IC50, read-out: Activity.
Where [3] appears, read: HT-29 cells stimulated with TNF-α (10 ng/ml), SMAC mimetic (6 μM) and zVAD-FMK (10 μM), 20 hours, CellTiter-Glo ATP luminescence, geometric mean IC50 from 10 points, read-out: Activity.
[4] abbreviates: HT-29, HT-29 cells, necroptosis induced by TNF-α/SMAC mimetic/zVAD-FMK, CellTiter-Glo, read-out: Activity (IC50 class).

The record followed here is patent US20250179061A1 (SIRONAX LTD., priority 2022, published 2025).

Like-named read-outs stand apart in the source and are kept apart here. Bounds are passed on as bounds.

As for `Cc1cc(-n2ncn(Cc3c(F)cccc3F)c2=O)ccc1Oc1cc(NC23CC(C#N)(C2)C3)ncc1F` [Example 308, 3-((4-(4-(4-(2,6-difluorobenzyl)-5-oxo-4,5-dihydro-1H-1,2,4-triazol-1-yl)-2-methylphenoxy)-5-fluoropyridin-2-yl)amino)bicyclo[1.1.1]pentane-1-carbonitrile], the IC50 under setting [1] was in the range of 0.1 to 1 µM.
Regarding `Cc1nc(C(C)(C)O)sc1Oc1ccc(-n2ncn(Cc3c(F)cccc3F)c2=O)cc1` [Example 473, 4-(2,6-difluorobenzyl)-2-(4-((2-(2-hydroxypropan-2-yl)-4-methylthiazol-5-yl)oxy)phenyl)-2,4-dihydro-3H-1,2,4-triazol-3-one], under setting [1], the IC50 was below 0.1 µM.
Take `CCOC(=O)c1nc(C)nn1Cc1ccc(-n2ncn(Cc3c(F)cccc3F)c2=O)cc1F` [Example 201]: the IC50 under setting [2] lay in the range of 0.1 to 1 µM.
`CCNC1(C)CN(c2cc(Oc3ccc(-n4ncn(Cc5c(F)cccc5F)c4=O)cc3F)c(F)cn2)C1` [Example 419, 4-(2,6-difluorobenzyl)-2-(4-((2-(3-(ethylamino)-3-methylazetidin-1-yl)-5-fluoropyridin-4-yl)oxy)-3-fluorophenyl)-2,4-dihydro-3H-1,2,4-triazol-3-one]: the IC50 under setting [1] was 0.1 to 1 µM.
`Cc1nc(CC#N)cn1Cc1ccc(-n2ncn(Cc3c(F)cccc3F)c2=O)cc1F` [Example 141, 2-(1-(4-(4-(2,6-difluorobenzyl)-5-oxo-4,5-dihydro-1H-1,2,4-triazol-1-yl)-2-fluorobenzyl)-2-methyl-1H-imidazol-4-yl)acetonitrile]: under setting [2], the IC50 fell in the range of 0.1 to 1 µM.
For `Cc1nc(Br)sc1Oc1ccc(-n2ncn(Cc3c(F)cccc3F)c2=O)cc1F` [Example 1, 2-(4-((2-bromo-4-methylthiazol-5-yl)oxy)-3-fluorophenyl)-4-(2,6-difluorobenzyl)-2,4-dihydro-3H-1,2,4-triazol-3-one], under setting [3], the IC50 was below 0.1 µM.
Regarding `Cc1cc(C(N)=O)oc1Oc1ccc(-n2nc3n(c2=O)[C@H](c2ccccc2)CC3)cc1F` (single isomer, unassigned) [Example 694], the IC50 under setting [3] is below 0.1 µM.
For the compound `Cc1nc(C(N)=O)sc1Oc1ccc(-n2nc3n(c2=O)[C@H](c2ccccc2)CO3)cc1F` [Example 445, (R)-5-(2-fluoro-4-(3-oxo-5-phenyl-5,6-dihydrooxazolo[2,3-c][1,2,4]triazol-2(3H)-yl)phenoxy)-4-methylthiazole-2-carboxamide], the IC50 under setting [1] was below 0.1 µM.
Turning to `Cc1nc(C(N)=O)sc1Oc1ccc(-n2nc3n(c2=O)[C@@H](c2ccc(F)cc2)CC3)cc1F` (single isomer, unassigned) [Example 669], under setting [4], the IC50 was in the range of 1 to 10 µM.
`O=c1n(Cc2c(F)cccc2F)cnn1-c1ccc(Oc2ccnc(N3CC(OC(F)(F)F)C3)c2)cc1` [Example 275, 4-(2,6-difluorobenzyl)-2-(4-((2-(3-(trifluoromethoxy)azetidin-1-yl)pyridin-4-yl)oxy)phenyl)-2,4-dihydro-3H-1,2,4-triazol-3-one]: under setting [1], the IC50 lay within 0.1 to 1 µM.
In the case of `CC1C(C#N)CN1c1nccc(Oc2ccc(-n3ncn(Cc4c(F)cccc4F)c3=O)cc2)c1F` (centres unmarked) [Example 357, 1-(4-(4-(4-(2,6-difluorobenzyl)-5-oxo-4,5-dihydro-1H-1,2,4-triazol-1-yl)phenoxy)-3-fluoropyridin-2-yl)-2-methylazetidine-3-carbonitrile], the IC50 under setting [1] was below 0.1 µM.
For `O=c1n(-c2ccc(N3CCOc4ccccc43)cc2)nc(Cl)n1Cc1ccccc1` [Example 681, 4-benzyl-5-chloro-2-(4-(2,3-dihydro-4H-benzo[b][1,4]oxazin-4-yl)phenyl)-2,4-dihydro-3H-1,2,4-triazol-3-one], under setting [4], the IC50 lay in the range of 0.1 to 1 µM.
Take `Cc1nc(N2CCC(C#N)C2)sc1Oc1ccc(-n2ncn(Cc3c(F)cccc3F)c2=O)cc1` (centres unmarked) [Example 54, 1-(5-(4-(4-(2,6-difluorobenzyl)-5-oxo-4,5-dihydro-1H-1,2,4-triazol-1-yl)phenoxy)-4-methylthiazol-2-yl)pyrrolidine-3-carbonitrile]: the IC50 under setting [3] was below 0.1 µM.
For the compound `Cc1nc(C2(O)CC2)sc1Oc1ccc(-n2ncn(Cc3c(F)cccc3F)c2=O)cc1F` [Example 582, 4-(2,6-difluorobenzyl)-2-(3-fluoro-4-((2-(1-hydroxycyclopropyl)-4-methylthiazol-5-yl)oxy)phenyl)-2,4-dihydro-3H-1,2,4-triazol-3-one], under setting [2], the IC50 is below 0.1 µM.
For the compound `C[C@H]1[C@H](C#N)CN1c1cc(Oc2ccc(-n3ncn(Cc4c(F)cccc4F)c3=O)cc2F)c(F)cn1` [Example 232, (2S,3R)-1-(4-(4-(4-(2,6-difluorobenzyl)-5-oxo-4,5-dihydro-1H-1,2,4-triazol-1-yl)-2-fluorophenoxy)-5-fluoropyridin-2-yl)-2-methylazetidine-3-carbonitrile], the IC50 under setting [1] is below 0.1 µM.
Still for that read-out and setting: the value for `CCOC1CN(c2cc(Oc3ccc(-n4ncn(Cc5c(F)cccc5F)c4=O)cc3)c(F)cn2)C1` [Example 324, 4-(2,6-difluorobenzyl)-2-(4-((2-(3-ethoxyazetidin-1-yl)-5-fluoropyridin-4-yl)oxy)phenyl)-2,4-dihydro-3H-1,2,4-triazol-3-one] was below 0.1 µM.
Regarding `O=c1n(Cc2c(F)cccc2F)cnn1-c1ccc(Oc2cc(N3CC4(COC4)C3)ncc2F)c(F)c1` [Example 237, 4-(2,6-difluorobenzyl)-2-(3-fluoro-4-((5-fluoro-2-(2-oxa-6-azaspiro[3.3]heptan-6-yl)pyridin-4-yl)oxy)phenyl)-2,4-dihydro-3H-1,2,4-triazol-3-one], the IC50 under setting [1] is below 0.1 µM.
As for `C[C@H]1[C@@H](O)CN1c1cc(Oc2ccc(-n3ncn(Cc4c(F)cccc4F)c3=O)cc2F)c(F)cn1` [Example 448, 4-(2,6-difluorobenzyl)-2-(3-fluoro-4-((5-fluoro-2-((2S,3S)-3-hydroxy-2-methylazetidin-1-yl)pyridin-4-yl)oxy)phenyl)-2,4-dihydro-3H-1,2,4-triazol-3-one], the IC50 under setting [1] is below 0.1 µM.
On to `Cc1nc(C2(O)CC2)sc1Oc1ccc(-n2ncn(Cc3c(F)cccc3F)c2=O)cc1` [Example 580, 4-(2,6-difluorobenzyl)-2-(4-((2-(1-hydroxycyclopropyl)-4-methylthiazol-5-yl)oxy)phenyl)-2,4-dihydro-3H-1,2,4-triazol-3-one], for which the IC50 under setting [2] was below 0.1 µM.
Same read-out and setting: the value for `Cc1nc(CC(C)(C)O)sc1Oc1ccc(-n2ncn(Cc3c(F)cccc3F)c2=O)cc1F` [Example 154, 4-(2,6-difluorobenzyl)-2-(3-fluoro-4-((2-(2-hydroxy-2-methylpropyl)-4-methylthiazol-5-yl)oxy)phenyl)-2,4-dihydro-3H-1,2,4-triazol-3-one] was below 0.1 µM; that for `Cc1nc(C#N)sc1Oc1ccc(-n2ncn(Cc3ccccc3F)c2=O)cc1F` [Example 561, 5-(2-fluoro-4-(4-(2-fluorobenzyl)-5-oxo-4,5-dihydro-1H-1,2,4-triazol-1-yl)phenoxy)-4-methylthiazole-2-carbonitrile] was below 0.1 µM.
Regarding `Cc1nc(C2(F)CC(OCc3ccccc3)C2)sc1Oc1ccc(-n2ncn(Cc3c(F)cccc3F)c2=O)cc1F` (centres unmarked) [Example 111, 2-(4-((2-(3-(benzyloxy)-1-fluorocyclobutyl)-4-methylthiazol-5-yl)oxy)-3-fluorophenyl)-4-(2,6-difluorobenzyl)-2,4-dihydro-3H-1,2,4-triazol-3-one], the IC50 under setting [3] was below 0.1 µM.
`COC(=O)c1ncc(Oc2ccc(-n3ncn(Cc4c(F)cccc4F)c3=O)cc2F)s1` [Example 105, methyl 5-(4-(4-(2,6-difluorobenzyl)-5-oxo-4,5-dihydro-1H-1,2,4-triazol-1-yl)-2-fluorophenoxy)thiazole-2-carboxylate]: under “HT-29, 20 h, read-out: Activity”, the IC50 fell in the range of 0.1 to 1 µM.
With `CC(C)(C)OC(=O)NC[C@H]1CCN1c1cc(Oc2ccc(-n3ncn(Cc4c(F)cccc4F)c3=O)cc2F)c(F)cn1` [Example 373, tert-butyl (R)-((1-(4-(4-(4-(2,6-difluorobenzyl)-5-oxo-4,5-dihydro-1H-1,2,4-triazol-1-yl)-2-fluorophenoxy)-5-fluoropyridin-2-yl)azetidin-2-yl)methyl)carbamate], the IC50 under setting [1] is below 0.1 µM.
As for `Cc1nc(C(C)(C)O)c(C)n1Cc1ccc(-n2ncn(Cc3c(F)cccc3F)c2=O)cc1F` [Example 135, 4-(2,6-difluorobenzyl)-2-(3-fluoro-4-((4-(2-hydroxypropan-2-yl)-2,5-dimethyl-1H-imidazol-1-yl)methyl)phenyl)-2,4-dihydro-3H-1,2,4-triazol-3-one], the IC50 under setting [2] lay within 1 to 10 µM.
Consider `Cc1c(Oc2ccc(-n3nc4n(c3=O)[C@H](c3ccccc3)CC4)cc2F)noc1C(N)=O` (single isomer, unassigned) [Example 690], for which the IC50 under setting [3] was below 0.1 µM.
Consider `C[C@H]1COCCN1c1cc(Oc2ccc(-n3ncn(Cc4c(F)cccc4F)c3=O)cc2)ccn1` [Example 244, (S)-4-(2,6-difluorobenzyl)-2-(4-((2-(3-methylmorpholino)pyridin-4-yl)oxy)phenyl)-2,4-dihydro-3H-1,2,4-triazol-3-one], for which the IC50 under setting [1] lay within 0.1 to 1 µM.
On to `Cc1nc(C2CCOC2)sc1Oc1ccc(-n2ncn(Cc3c(F)cccc3F)c2=O)cc1` (centres unmarked) [Example 550, 4-(2,6-difluorobenzyl)-2-(4-((4-methyl-2-(tetrahydrofuran-3-yl)thiazol-5-yl)oxy)phenyl)-2,4-dihydro-3H-1,2,4-triazol-3-one], for which the IC50 under setting [2] is below 0.1 µM.
As for `CC1(N)CN(c2cc(Oc3ccc(-n4ncn(Cc5c(F)cccc5F)c4=O)cc3F)c(F)cn2)C1` [Example 424, 2-(4-((2-(3-amino-3-methylazetidin-1-yl)-5-fluoropyridin-4-yl)oxy)-3-fluorophenyl)-4-(2,6-difluorobenzyl)-2,4-dihydro-3H-1,2,4-triazol-3-one], the IC50 under setting [1] was 0.1 to 1 µM.
